Measurements: patent US8642601B2, “Inhibitors of JNK” (Roche Palo Alto LLC, priority 2010, dated 2014)
Where a name gives a salt, the structure may show the parent alone.

Legend:
[1] = tested on: T1, JNK; assay: JNK Assay in vitro (phosphorylation of GST-ATF2 (19-96) with [γ-33P] ATP); format: biochemical; details: JNK isoform not stated for Table 1 (method describes human JNK1α1, JNK2α2, JNK3); Km concentrations of ATP and substrate
T1 construct: Human JNK2α2 assay contains 1 nM enzyme; Human JNK1α1 assay contains 2 nM enzyme
Experimental: JNK activity was measured by phosphorylation of GST-ATF2 (19-96) with [γ-^33P] ATP. The enzyme reaction was conducted at Km concentrations of ATP and the substrate at final volume of 40 μl in buffer containing 25 mM HEPES, pH 7.5, 2 mM dithiothreitol, 150 mM NaCl, 20 mM MgCl2, 0.001% Tween® 20, 0.1% BSA and 10% DMSO. Human JNK2α2 assay contains 1 nM enzyme, 1 μM ATF2, 8 μM ATP with 1 uCi [γ-^33P] ATP. Human JNK1α1 assay contains 2 nM enzyme, 1 μM ATF2, 6 μM ATP with 1 μCi [γ-^33P] ATP. Human JNK3 (Upstate Biotech #14-501M) assay contains 2 nM enzyme, 1 μM ATF2, 4 μM ATP with 1 μCi [γ-^33P] ATP. The enzyme assay was carried out in the presence or absence of several compound concentrations. JNK and compound were pre-incubated for 10 min., followed by initiation of the enzymatic reaction by adding ATP and the substrate. The reaction mixture was incubated at 30° C. for 30 min. At the end of incubation, the reaction was terminated by transferring 25 μl of the reaction mixture to 150 μl of 10% glutathione Sepharose® slurry (Amersham #27-4574-01) containing 135 mM EDTA. The reaction product was captured on the affinity resin, and washed on a filtration plate (Millipore, MABVNOB50) with phosphate buffered saline for six times to remove free radionucleotide. The incorporation of ^33P into ATF2 was quantified on a microplate scintillation counter (Packard Topcount). Compound inhibition potency on JNK was measured by IC50 value generated from ten concentration inhibition curves fitted into the 3-parameter model: % inhibition=Maximum/(1+(IC50/[Inhibitor])^slope). Data were analyzed on Microsoft Excel for parameter estimation.

Row | SMILES | melting point [°C] | IC50 [1] [nM]
1 | CCN1CCN(C(=O)[C@H]2CC[C@H](Nc3nccc(-n4ccc5c(OCC6CCS(=O)(=O)C6)cccc54)n3)CC2)C[C@H]1C (stereo partly drawn) (as salt: HCl) [Compound 3, (4-{4-[4-(1,1-Dioxo-tetrahydro-1λ^6-thiophen-3-ylmethoxy)-indol-1-yl]-pyrimidin-2-ylamino}-cyclohexyl)-((R)-4-ethyl-3-methyl-piperazin-1-yl)-methanone] | 225 | –
2 | CCN1CCN(C(=O)[C@H]2CC[C@H](Nc3nccc(-n4ccc5c(OCC6CCS(=O)(=O)C6)cccc54)n3)CC2)C[C@@H]1C (stereo partly drawn) (as salt: HCl) [Compound 9, (4-{4-[4-(1,1-Dioxo-tetrahydro-1λ^6-thiophen-3-ylmethoxy)-indol-1-yl]-pyrimidin-2-ylamino}-cyclohexyl)-((S)-4-ethyl-3-methyl-piperazin-1-yl)-methanone] | 198 to 204 | –
3 | CCCN1CC[C@@H](NC(=O)[C@H]2CC[C@H](Nc3nccc(-n4ccc5c(OCCCS(C)(=O)=O)cccc54)n3)CC2)C1 (as salt: HCl) [Compound 11, 4{4-[4-(3-Methanesulfonyl-propoxy)-indol-1-yl]-pyrimidin-2-ylamino}-cyclohexanecarboxylic acid ((R)-1-propyl-pyrrolidin-3-yl)-amide] | 140 to 142 | –
4 | CCN1CC[C@H](NC(=O)[C@H]2CC[C@H](Nc3nccc(-n4ccc5c(OCCCS(C)(=O)=O)cccc54)n3)CC2)C1 (as salt: HCl) [Compound 13, 4-{4-[4-(3-Methanesulfonyl-propoxy)-indol-1-yl]-pyrimidin-2-ylamino}-cyclohexanecarboxylic acid ((S)-1-ethyl-pyrrolidin-3-yl)-amide] | 160 to 162 | –
5 | CCN1CCC[C@@H](NC(=O)[C@H]2CC[C@H](Nc3nccc(-n4ccc5c(OCCCS(C)(=O)=O)cccc54)n3)CC2)C1 (as salt: HCl) [Compound 15, 4-{4-[4-(3-Methanesulfonyl-propoxy)-indol-1-yl]-pyrimidin-2-ylamino}-cyclohexanecarboxylic acid ((R)-1-ethyl-piperidin-3-yl)-amide] | 180 to 185 | –
6 | C[C@@H]1CN(C(=O)[C@H]2CC[C@H](Nc3nccc(-n4ncc5c(OCCCS(C)(=O)=O)cccc54)n3)CC2)CCN1 (as salt: HCl) [Compound 24, (4-{4-[4-(3-Methanesulfonyl-propoxy)-indazol-1-yl]-pyrimidin-2-ylamino}-cyclohexyl)-((R)-3-methyl-piperazin-1-yl)-methanone] | 245 to 250 | –
7 | C[C@H]1CN(C(=O)[C@H]2CC[C@H](Nc3nccc(-n4ncc5c(OCC6CCS(=O)(=O)C6)cccc54)n3)CC2)CCN1 (stereo partly drawn) (as salt: HCl) [Compound 25, (4-{4-[4-(1,1-Dioxo-tetrahydro-1λ^6-thiophen-3-ylmethoxy)-indazol-1-yl]-pyrimidin-2-ylamino}-cyclohexyl)-((S)-3-methyl-piperazin-1-yl)-methanone] | 245 to 250 | –
8 | CC1(C)CN(C(=O)[C@H]2CC[C@H](Nc3nccc(-n4ccc5c(OCC6CCS(=O)(=O)C6)cccc54)n3)CC2)CCN1 (stereo partly shown) (as salt: HCl) [Compound 28, (3,3-Dimethyl-piperazin-1-yl)-(4-{4-[4-(1,1-dioxo-tetrahydro-1λ^6-thiophen-3-ylmethoxy)-indol-1-yl]-pyrimidin-2-ylamino}-cyclohexyl)-methanone] | > 300 | –
9 | CCN1CCCC(NC(=O)[C@H]2CC[C@H](Nc3nccc(-n4ccc5c(OCC6CCS(=O)(=O)C6)cccc54)n3)CC2)C1 (stereo partly shown) (as salt: HCl) [Compound 29, 4-{4-[4-(1,1-Dioxo-tetrahydro-1λ^6-thiophen-3-ylmethoxy)-indol-1-yl]-pyrimidin-2-ylamino}-cyclohexanecarboxylic acid (1-ethyl-piperidin-3-yl)-amide] | 205 to 210 | –
10 | CCOC1CC2CCC(C1)N2C(=O)[C@H]1CC[C@H](Nc2nccc(-n3ccc4c(OCCCS(C)(=O)=O)cccc43)n2)CC1 (stereo partly shown) (as salt: salt) [Compound 26, (3-Ethoxy-8-aza-bicyclo[3.2.1]oct-8-yl)-(4-{4-[4-(3-methanesulfonyl-propoxy)-indol-1-yl]-pyrimidin-2-ylamino}-cyclohexyl)-methanone; compound with formic acid] | 125 to 130 | –
11 | CCCN1CCC[C@H](NC(=O)[C@H]2CC[C@H](Nc3nccc(-n4ccc5c(OCCCS(C)(=O)=O)cccc54)n3)CC2)C1 (stereo in doubt) (as salt: HCl) [Compound 14, 4-{4-[4-(3-Methanesulfonyl-propoxy)-indol-1-yl]-pyrimidin-2-ylamino}-cyclohexanecarboxylic acid ((R)-1-propyl-piperidin-3-yl)-amide] | 185 to 190 | –
12 | CCOC(=O)CC1CCN(C(=O)[C@H]2CC[C@H](Nc3nccc(-n4ccc5c(OCCCS(C)(=O)=O)cccc54)n3)CC2)CC1 [Compound 1, [1-(4-{4-[4-(3-Methanesulfonyl-propoxy)-indol-1-yl]-pyrimidin-2-ylamino}-cyclohexanecarbonyl)-piperidin-4-yl]-acetic acid ethyl ester] | 175 to 177 | 550
13 | CS(=O)(=O)CCCOc1cccc2c1ccn2-c1ccnc(N[C@H]2CC[C@H](C(=O)N3CCC[C@H](C(=O)O)C3)CC2)n1 [Compound 4, (S)-1-(4-{4-[4-(3-Methanesulfonyl-propoxy)-indol-1-yl]-pyrimidin-2-ylamino}-cyclohexanecarbonyl)-piperidine-3-carboxylic acid] | 270 to 276 | 107
14 | CS(=O)(=O)CCCOc1cccc2c1ccn2-c1ccnc(N[C@H]2CC[C@H](C(=O)N3CCC(C(N)=O)CC3)CC2)n1 [Compound 5, 1-(4-{4-[4-(3-Methanesulfonyl-propoxy)-indol-1-yl]-pyrimidin-2-ylamino}-cyclohexanecarbonyl)-piperidine-4-carboxylic acid amide] | 219 to 221 | 91.7
15 | CC(C)(O)C1CCN(C(=O)[C@H]2CC[C@H](Nc3nccc(-n4ccc5c(OCCCS(C)(=O)=O)cccc54)n3)CC2)CC1 [Compound 6, [4-(1-Hydroxy-1-methyl-ethyl)-piperidin-1-yl]-(4-{4-[4-(3-methanesulfonyl-propoxy)-indol-1-yl]-pyrimidin-2-ylamino}-cyclohexyl)-methanone] | 196 to 198 | 86
16 | CCOC(=O)C1CCN(C(=O)[C@H]2CC[C@H](Nc3nccc(-n4ccc5c(OCC6CCS(=O)(=O)C6)cccc54)n3)CC2)CC1 (stereo partly shown) [Compound 7, 1-(4-{4-[4-(1,1-Dioxo-tetrahydro-1λ^6-thiophen-3-ylmethoxy)-indol-1-yl]-pyrimidin-2-ylamino}-cyclohexanecarbonyl)-piperidine-4-carboxylic acid ethyl ester] | 209 to 211 | 51.4
17 | O=C(O)C1CCN(C(=O)[C@H]2CC[C@H](Nc3nccc(-n4ccc5c(OCC6CCS(=O)(=O)C6)cccc54)n3)CC2)CC1 (stereo partly shown) [Compound 8, 1-(4-{4-[4-(1,1-Dioxo-tetrahydro-1λ^6-thiophen-3-ylmethoxy)-indol-1-yl]-pyrimidin-2-ylamino}-cyclohexanecarbonyl)-piperidine-4-carboxylic acid] | 172 to 174 | 70.8
18 | CCOC(=O)C1(C)CCN(C(=O)[C@H]2CC[C@H](Nc3nccc(-n4ccc5c(OCCCS(C)(=O)=O)cccc54)n3)CC2)CC1 [Compound 10, 1-(4-{4-[4-(3-Methanesulfonyl-propoxy)-indol-1-yl]-pyrimidin-2-ylamino}-cyclohexanecarbonyl)-4-methyl-piperidine-4-carboxylic acid ethyl ester] | 171 to 173 | 58.4
19 | CCN1CC[C@@H](NC(=O)[C@H]2CC[C@H](Nc3nccc(-n4ccc5c(OCCCS(C)(=O)=O)cccc54)n3)CC2)C1 [Compound 12, 4-{4-[4-(3-Methanesulfonyl-propoxy)-indol-1-yl]-pyrimidin-2-ylamino}-cyclohexanecarboxylic acid ((R)-1-ethyl-pyrrolidin-3-yl)-amide] | 229 to 231 | 93.8
20 | CCCN1CCC[C@@H](NC(=O)[C@H]2CC[C@H](Nc3nccc(-n4ccc5c(OCCCS(C)(=O)=O)cccc54)n3)CC2)C1 [Compound 16, 4-{4-[4-(3-Methanesuflonyl-propoxy)-indol-1-yl]-pyrimidin-2-ylamino}-cyclohexanecarboxylic acid ((S)-1-propyl-piperidin-3-yl)-amide] | 185 to 190 | 163
21 | CC1(C(=O)O)CCN(C(=O)[C@H]2CC[C@H](Nc3nccc(-n4ccc5c(OCCCS(C)(=O)=O)cccc54)n3)CC2)CC1 [Compound 18, 1-(4-{4-[4-(3-Methanesulfonyl-propoxy)-indol-1-yl]-pyrimidin-2-ylamino}-cyclohexanecarbonyl)-4-methyl-piperidine-4-carboxylic acid] | 174 | 153
